Measurements taken from US6379959B1, “Metalocarboxypeptidase inhibitors and derived molecules used as antitumor agents” (Universitat Autonoma de Barcelona, priority 1996, dated 2002).
“And” between values parts separate entries of the source, which are not always exact repeats. Equal values may be shown once. Positions of bridges follow the written chain, without caps; N, C: chain ends. No end group written: not given here.

Key:
[1] = tested on: Int-2 murine insulinoma cell line; assay: Proliferation of Int-2 cells pretreated with PCI; format: cell-based; settings: pretreatment 50 μg/mL of PCI, 7, 20 and 30 days; treatments 7, 8 and 5 days
Protocol: The analysed cell lines were Capan-1, already described, and Int-2. This latter being a murine insulinoma cell line derived from transgenic mice developed in the lab of Dr. M. Frazier. The medium employed for the growth of both lines was DMEM+10%FBS and the culture techniques that were used were identical to those previously described. In the case of the Int-2 cell line, only proliferation tests were performed. They were carried out in the same way as that described in the case of Capan-1, with the unique difference that the number of cells that was put per well in the plate of 96 was 500 instead of 2,000.

p53 = assay: Gene expression analysis by Northern transfer, p53 probe; format: cell-based, human; settings: for beta counts, p53 probe: 12 days, Capan-1 (control 138)
Protocol: To verify whether the PCI plays any role in signal transduction, studies of gene expression were carried out by Northern transfer. The probes were: β2-microglobulin, p53 and trypsin. The β2-microglobulin is a constitutive gene that is used as a sample loading control in the gel. p53 is a transcription factor which, among other functions, controls the state of the genomic DNA and the cell cycle (Bates, S. & Vousden, K. H. (1996) Curr. Opin. Genet. Develop., 6: 12-19). If the DNA is damaged, p53 induces its repair and, if it is excessively damaged, it provokes programmed cellular death (apoptosis). Trypsin is a marker of pancreatic cells of the acinar type. The trypsin is not expressed by all the tumoral cells and it is believed that it is expressed by the cells with metastatic power and/or invasive power (Fernández, E. et al., (1994) Cancer, 73: 2285-2295). The probes employed are described as follows:
In the first place, 3×10^6 cells of the human pancreatic adenocarcinoma cell line Capan-1 were placed in each one of the 12 flasks of 150 cm^2. […] They were maintained in culture for 12 days period, changing their medium every 4 days, adding fresh PCI. Once the treatment was completed, the cells were trypsinized and the sediment of the cells was kept at −80° C. Afterwards, the extraction of the RNA was carried out.
The quantifying of the hybridized filters with the respective probes was done using a Betascope 601 blot Analyzer counter (Betagen, USA). The counting time was 45 min for the hybridized filter with the probe p53 and β2-microglobuline and 2 h for the trypsin probe.
Assuming that the counts of the β2-Microglobuline are an indication of the total amount of poly(A^+) RNA, the data may be standardized as a percentage of counts of the band compared to the β2-microglobuline counts of the same cells, giving a value which depends on the abundance of the specific mRNA in relation to the total of mRNA.

embryonic cells of mice = settings: PCI in low concentrations (5 μg/mL), in vitro; cited from earlier work
[2] = tested on: human pancreatic adenocarcinoma cell line IBF-CP3; assay: Proliferation test by recount of the cells number (hemocytometer), IBF-CP3; format: cell-based
Protocol: In this assay and with the aim of determining whether the presence in the culture medium produces some effect on the growth in vitro of the cell lines, the final number of the cells when the control reaches monolayer is determined, in the presence and in the absence of the inhibitor. The calculation is made by direct recount of the number of cells using trypsinization and subsequent recount in a hemocytometer. The detailed method is as follows:
1. In each of the three culture flasks of 25 cm^2, 5×10^5 cells are seed and a total volume of the culture medium is added (DMEM with a 10% of fetal bovine serum or synthetic serum, according to the test) of 5 mL:
A first flask is used as control and no PCI is added to it.
PCI is added to a second flask some hours after the culture has started and once the cells have adhered to the bottom of the flask. This type of test is defined as postadherence test.
PCI is added to a third flask at the same time as the culture has begun, before the cells have had time to adhere to the bottom of the flask, thus constituting the preadherence test.
2. The cells are maintained in an incubator at 37° C., 87% of relative humidity and 10% of CO2. The medium contained in the flasks is changed every 3-4 days. Medium free of PCI is added to the control flask; medium with PCI is added to the other two.
3. When the culture of one of the flasks reaches a state of monolayer (or after a specific number of days), we proceed to count the number of cells in each one of them. Firstly and in order to do that, the cells are trypsinized using the following steps:
Immediately after, the recount of the number of cells is done. To do that, an aliquot of 10 μL is taken and it is placed in an eppendorf tube. 10 μL of a solution of trypan blue dye is added. Then, it is well mixed and two aliquots of 10 μL of the mixture are taken and placed in the two zones of an hemocytometer which is placed in the inverted microscope.
The live cells are observed as being refringent and clear, while the dead ones are observed as opaque and dyed blue, for the staining is only able to penetrate dead cells. The total number of cells of the W zone of the hemocytometer is counted, differentiating between the live and the dead ones. Based on this recount, the total number of cells that was in the initial suspension (which will be the total number of cells that was in the culture) is calculated by multiplying the number obtained by 2×10^4. The viability (in %) is calculated by dividing the number of live cells by the total number of counted cells and multiplying it by 100.
The effect produced by the presence of PCI in the medium is expressed as % of cell growth inhibition, which is calculated according to the formula [formula] […]

EGF receptor = EGF receptor (Homo sapiens, UniProt P00533); assay: Kinase activity (phosphorilation) of the EGF receptor, Capan-1 cells; format: cell-based; set-up: endogenous in cells; host or cells: Capan-1 (human pancreatic adenocarcinoma)
Protocol: The material and protocol used have been those described by Donato, N. J. et al. (1989) J. Cell. Biochem., 41: 139-157.
1.c. Wash the cells twice more with tempered PBS and add new serum-free medium. Immediately after, add PCI to the concentration which is going to be studied in the cultures to be treated and incubate for 10 min at 37° C.
2.a. […] Incubate for 1 h in ice.
3.a. Prepare the reaction buffer. Each sample requires 50μL.
3.k. Dry the gel (for at least 3 h) and autoradiograph it for 10 min for the A431 cell line and 2-4 h for the Capan-1 cell line. Count the radiactivity of the filter using a beta counter.

Substance: PCI: potato carboxypeptidase inhibitor, isoform IIa, obtained by recombinant DNA techniques in E. coli (SEQ ID NO.2) (EQHADPICNKPCKTHDDCSGAWFCQACWNSARTCGPYVG; disulfide 12-27, 18-34, 8-24)
- growth of pretreated cells cultured later in the absence of the protein compared to non-pretreated cells [1]: approximately half
- higher transcription of p53 in relation to the control group cells (treatment/control) (p53; 1 mg/mL PCI): 2.8 times
- p53/b2 (counts of one band in relation to those of β2-microglobuline) (p53; 1 mg/mL PCI (control 0.1445)): 0.4040
- beta counts, p53 probe (p53; 1 mg/mL PCI): 882
- higher transcription of p53 in relation to the control group cells (treatment/control) (p53; 10 mg/mL PCI): 1.2 times
- beta counts, p53 probe (p53; 10 mg/mL PCI): 1111
- tumoral transformation induced by irradiation (embryonic cells of mice): inhibits in vitro the tumoral transformation
- Percentage of Growth Inhibition ([2]; 5 mg PCI/mL, Postadhesion): 23.7 ± 19.3%
- Percentage of Growth Inhibition ([2]; 5 mg PCI/mL, Preadhesion, DMEM+10%BMS until controls confluent): 20.4 ± 14.2%
- Percentage of Growth Inhibition ([2]; 10 mg PCI/mL, Postadhesion): 15.1 ± 8.3%
- Percentage of Growth Inhibition ([2]; 10 mg PCI/mL, Preadhesion): 11.6 ± 8.5%
- Kinase activity (%) (EGF receptor; 5 ng/mL EGF + 1 mg/mL PCI): 180%
- Kinase activity (%) (EGF receptor; 5 ng/mL EGF + 10 mg/mL PCI): 170%
- Kinase activity (%) (EGF receptor; 5 ng/mL EGF + 50 mg/mL PCI): 120%
- inhibition of the kinase activity induced by EGF (EGF receptor; PCI concentration of 50 μg/mL): 50%
- Kinase activity (%) (EGF receptor; basal, incubation with PCI 50 mg/mL, 10 min, 100% = absence of PCI): 70% and 88% and 90%
